Key:
[1] = test system: T1, hybrid protein LAC4-LACA-KpnI; experiment: o-nitrophenol release, Lineweaver-Burk; format: biochemical, Kluyveromyces lactis;Aspergillus niger; conditions: crude extract (30 μg protein); buffer Z with 1.6 mM MgSO4; ONPG 2-12 mM
T1 construct: single-chain fusion: K. lactis LAC4 without its 297 C-terminal residues (fifth domain), replaced by 274 C-terminal residues of A. niger LACA (from pVK1.1) at KpnI site; expressed in K. lactis MW190-9B; crude extract

[2] = test system: T1, hybrid protein LAC4-LACA-KpnI; experiment: D-galactose release by coupled galactose dehydrogenase / NADH kit at […] nm, Lineweaver-Burk; format: biochemical, Kluyveromyces lactis;Aspergillus niger; conditions: crude extract (60 μg protein); lactose 5-160 mM

| Structure (SMILES) | Km [1] [mM] | Km [2] [mM] |
| --- | --- | --- |
| O=[N+]([O-])c1ccccc1O[C@@H]1O[C@H](CO)[C@H](O)[C@H](O)[C@H]1O [ONPG] | 0.8 | – |
| OC[C@H]1O[C@@H](O[C@H]2[C@H](O)[C@@H](O)C(O)O[C@@H]2CO)[C@H](O)[C@@H](O)[C@H]1O (some centres unmarked) [lactose] | – | 8.7 |

— article PMC1764428, “Secretion and properties of a hybrid Kluyveromyces lactis-Aspergillus niger β-galactosidase” (Microbial Cell Factories, 2006)
